Experimental data from ChEMBL document CHEMBL1201862, “PubChem BioAssay data set” (2004).
Blank lines part the entries; values can stand above or below the molecule they belong to. The source made the active and inactive calls.

Assays:
[1] = biological target: 26S proteasome non-ATPase regulatory subunit 14 (Homo sapiens, UniProt O00487); test: inhibition of proteasome subunit RPN11 – biochemical, fluorescence polarization, uHTS hits, confirmation (AID 602368); type: functional
Genome polyprotein = Genome polyprotein (dengue virus type 2, UniProt P29990); test: Dengue-2 NS5 methyltransferase inhibitors, primary screen, biochemical, confirmation dose response (AID 588689); type: functional
Cysteine protease ATG4B = biological target: T1, Cysteine protease ATG4B (Homo sapiens, UniProt Q9Y4P1); type: functional;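 further: Fluorescence-based dose-response confirmation assay measuring inhibition of ATG4B activity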
T1 sequence (Q9Y4P1 whole entry): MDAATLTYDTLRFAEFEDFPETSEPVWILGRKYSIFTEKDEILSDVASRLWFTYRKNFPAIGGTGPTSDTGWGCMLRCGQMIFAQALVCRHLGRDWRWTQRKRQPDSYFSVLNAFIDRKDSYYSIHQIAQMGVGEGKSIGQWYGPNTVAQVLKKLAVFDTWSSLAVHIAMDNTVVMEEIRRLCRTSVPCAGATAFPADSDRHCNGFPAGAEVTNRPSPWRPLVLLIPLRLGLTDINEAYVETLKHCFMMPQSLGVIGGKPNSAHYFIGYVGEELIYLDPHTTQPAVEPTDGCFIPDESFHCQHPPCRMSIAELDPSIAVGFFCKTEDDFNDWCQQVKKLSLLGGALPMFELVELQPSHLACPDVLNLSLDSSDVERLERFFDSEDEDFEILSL

[2] = biological target: T2, Small ubiquitin-related modifier 1 (Homo sapiens, UniProt P63165); test: inhibitors of SUMO1 peptide binding, dose response, biochemical, fluorescence polarization, uHTS hits (AID 624382); type: functional; details: read-out: IC50_Mean
[3] = biological target: T3, RNA-binding protein pos-1 (Caenorhabditis elegans, UniProt G5EF15); test: inhibitors of POS-1/mex-3 RNA binding, dose response, biochemical, fluorescence polarization (AID 1964);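 further: purified POS-1 fused to maltose binding protein made in E. coli; potency of compounds blocking POS-1 binding to fluorescent RNA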
T3 sequence (G5EF15 whole entry): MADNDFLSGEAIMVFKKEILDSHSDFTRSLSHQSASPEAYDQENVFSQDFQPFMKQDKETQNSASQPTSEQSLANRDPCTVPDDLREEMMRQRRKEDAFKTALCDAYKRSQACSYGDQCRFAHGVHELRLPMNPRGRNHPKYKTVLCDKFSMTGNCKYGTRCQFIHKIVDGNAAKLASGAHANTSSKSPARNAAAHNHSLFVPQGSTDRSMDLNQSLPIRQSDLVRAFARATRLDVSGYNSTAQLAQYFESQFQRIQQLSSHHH

ORF 73 = biological target: T4, ORF 73 (Human herpesvirus 8, UniProt O40947); test: inhibitors of C-LANA binding to LBS DNA, dose response, biochemical, fluorescence polarization, cherry-picked samples (AID 504725); parameters: species or system Human gammaherpesvirus 8;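 further: fluorescence polarization of a labeled DNA duplex reporting LANA DNA binding; potency is for inhibitors that block LANA binding to the DNA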
T4 sequence (O40947 whole entry): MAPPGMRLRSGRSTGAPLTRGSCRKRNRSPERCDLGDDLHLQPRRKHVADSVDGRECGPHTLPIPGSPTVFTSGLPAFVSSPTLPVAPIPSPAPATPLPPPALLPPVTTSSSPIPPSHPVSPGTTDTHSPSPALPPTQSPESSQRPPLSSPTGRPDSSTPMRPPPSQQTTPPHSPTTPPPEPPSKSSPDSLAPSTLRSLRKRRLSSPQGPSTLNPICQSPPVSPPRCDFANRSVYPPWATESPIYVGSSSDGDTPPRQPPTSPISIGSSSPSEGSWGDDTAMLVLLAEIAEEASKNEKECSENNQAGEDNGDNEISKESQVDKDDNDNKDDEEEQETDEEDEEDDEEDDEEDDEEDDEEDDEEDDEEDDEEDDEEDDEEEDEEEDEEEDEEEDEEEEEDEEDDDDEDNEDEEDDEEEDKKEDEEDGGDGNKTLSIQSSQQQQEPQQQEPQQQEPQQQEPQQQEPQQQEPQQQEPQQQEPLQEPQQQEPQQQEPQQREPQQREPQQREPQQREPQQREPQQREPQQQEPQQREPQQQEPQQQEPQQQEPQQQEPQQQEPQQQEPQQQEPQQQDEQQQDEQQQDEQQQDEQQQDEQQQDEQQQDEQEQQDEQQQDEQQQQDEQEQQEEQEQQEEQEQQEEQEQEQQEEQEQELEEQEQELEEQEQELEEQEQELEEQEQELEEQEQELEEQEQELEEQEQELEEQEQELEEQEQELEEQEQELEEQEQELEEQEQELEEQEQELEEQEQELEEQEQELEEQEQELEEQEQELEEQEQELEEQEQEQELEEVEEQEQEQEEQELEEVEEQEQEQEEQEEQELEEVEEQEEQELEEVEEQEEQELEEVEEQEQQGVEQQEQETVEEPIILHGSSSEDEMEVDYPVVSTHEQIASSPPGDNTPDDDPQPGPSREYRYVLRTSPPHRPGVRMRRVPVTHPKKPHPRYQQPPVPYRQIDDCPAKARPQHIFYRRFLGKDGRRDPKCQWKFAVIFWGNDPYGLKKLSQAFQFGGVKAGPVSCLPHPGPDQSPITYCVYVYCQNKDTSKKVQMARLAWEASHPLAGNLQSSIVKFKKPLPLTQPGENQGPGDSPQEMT

[4] = biological target: 72 kDa type IV collagenase (Homo sapiens, UniProt P08253); test: Dose Response validation of uHTS RPN11 inhibitor hits using a MMP-2 Fluorescence assay.; type: functional
Large T antigen = Large T antigen (Simian virus 40, UniProt P03070); type: functional, Betapolyomavirus macacae;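 further: Confirmatory-stage PubChem screen for compounds that inhibit SV40 T antigen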
Prothrombin = Prothrombin (Bos taurus, UniProt P00735); test: thrombin inhibition, dose response, biochemical, fluorescence polarization, uHTS hits (AID 602369); type: functional
[5] = biological target: T5, Zinc finger protein mex-5 (Caenorhabditis elegans, UniProt Q9XUB2); test: MEX-5/TCR-2 RNA interaction inhibitors, dose response, biochemical, C. elegans, fluorescence polarization (AID 1960)
T5 sequence (Q9XUB2 whole entry): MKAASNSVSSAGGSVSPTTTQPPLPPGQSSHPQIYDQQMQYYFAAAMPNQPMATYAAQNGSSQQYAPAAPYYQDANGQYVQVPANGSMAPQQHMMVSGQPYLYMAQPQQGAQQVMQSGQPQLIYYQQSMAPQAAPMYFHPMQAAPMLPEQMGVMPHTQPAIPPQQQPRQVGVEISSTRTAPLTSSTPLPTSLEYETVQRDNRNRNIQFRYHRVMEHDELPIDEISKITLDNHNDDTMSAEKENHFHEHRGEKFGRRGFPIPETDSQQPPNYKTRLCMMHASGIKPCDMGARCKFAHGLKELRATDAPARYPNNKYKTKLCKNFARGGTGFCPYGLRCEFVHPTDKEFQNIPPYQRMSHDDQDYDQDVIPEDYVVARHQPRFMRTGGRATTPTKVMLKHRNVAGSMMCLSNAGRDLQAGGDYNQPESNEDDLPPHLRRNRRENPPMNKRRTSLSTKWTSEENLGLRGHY

Phospholipase A2 = Phospholipase A2 (Homo sapiens, UniProt P04054); type: functional;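 further: confirmatory dose-response counterscreen on phospholipase A2, testing hits that came from an ultra-high-throughput screen for ATG4B inhibitors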
[6] = biological target: T2, Small ubiquitin-related modifier 1; test: inhibitors of SUMO1 partner interactions, dose response, biochemical, FRET (AID 624383); type: functional; details: read-out: IC50_Mean
CHO-K1 = test: (§1) Counterscreen for antagonists of the orexin 1 receptor (OX1R; HCRTR1): Homogeneous time resolved fluorescence (HTRF)-based cell-based dose response assay to identify antagonists of the parental CHO-K1 cell line. [Related pubchem assays (depositor defined):AID434989, AID435008, AID463079, AID485270, AID492963, AID492964, AID492965, AID493232, AID504699, AID504701]; type: functional; details: Cricetulus griseus
[7] = biological target: T6, Orexin/Hypocretin receptor type 1 (Homo sapiens, UniProt O43613); test: (§2) Fluorescence-based cell-based high throughput dose response assay for antagonists of the orexin 1 receptor (OX1R; HCRTR1). [Related pubchem assays (depositor defined):AID434989, AID435008, AID463079, AID485270, AID492963, AID492964, AID492965, AID493232, AID504717, AID504718]; type: functional
T6 sequence (O43613 whole entry): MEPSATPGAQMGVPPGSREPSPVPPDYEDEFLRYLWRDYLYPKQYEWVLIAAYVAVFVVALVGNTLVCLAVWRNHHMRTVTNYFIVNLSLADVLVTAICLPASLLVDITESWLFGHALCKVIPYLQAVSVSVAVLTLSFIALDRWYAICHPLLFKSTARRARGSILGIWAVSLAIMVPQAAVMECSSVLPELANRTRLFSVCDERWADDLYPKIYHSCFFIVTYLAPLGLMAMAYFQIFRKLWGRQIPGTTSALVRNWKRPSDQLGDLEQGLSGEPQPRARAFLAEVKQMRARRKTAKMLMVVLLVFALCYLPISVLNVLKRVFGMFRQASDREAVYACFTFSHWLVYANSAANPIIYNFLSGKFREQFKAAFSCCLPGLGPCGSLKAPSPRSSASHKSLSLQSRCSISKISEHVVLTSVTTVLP

[8] = biological target: T6, Orexin/Hypocretin receptor type 1; test: as §2, with “Homogeneous Time Resolved Fluorescence (HTRF)-based” for “Fluorescence-based”; type: functional
Orexin receptor type 2 [9] = biological target: T7, Orexin receptor type 2 (Homo sapiens, UniProt O43614); test: Counterscreen assay for antagonists of the orexin 1 receptor (OX1R; HCRTR1): Homogeneous Time Resolved Fluorescence (HTRF)-based cell-based dose response assay for antagonists of the orexin 2 receptor (OX2R; HCRTR2), run by assay provider.; type: functional
T7 sequence (O43614 whole entry): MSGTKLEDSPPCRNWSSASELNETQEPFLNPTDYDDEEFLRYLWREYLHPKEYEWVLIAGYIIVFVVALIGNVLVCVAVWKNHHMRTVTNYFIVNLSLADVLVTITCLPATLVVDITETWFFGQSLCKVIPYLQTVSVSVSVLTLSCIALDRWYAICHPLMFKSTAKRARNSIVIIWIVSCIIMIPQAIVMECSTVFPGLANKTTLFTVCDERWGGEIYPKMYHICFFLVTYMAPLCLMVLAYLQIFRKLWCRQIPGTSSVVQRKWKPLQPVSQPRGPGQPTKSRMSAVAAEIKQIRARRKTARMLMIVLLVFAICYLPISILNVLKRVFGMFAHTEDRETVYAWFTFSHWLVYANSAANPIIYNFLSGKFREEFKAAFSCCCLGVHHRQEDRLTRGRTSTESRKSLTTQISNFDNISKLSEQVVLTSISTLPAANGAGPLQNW

[10] = as §1, with “Fluorescence-based” for “Homogeneous time resolved fluorescence (HTRF)-based”, “cell-based high throughput” for “cell-based”, “CHO” for “CHO-K1”; type: functional
Orexin receptor type 2 [11] = biological target: T7, Orexin receptor type 2; test: Counterscreen assay for antagonists of the orexin 1 receptor (OX1R; HCRTR1): Fluorescence-based cell-based dose response assay for antagonists of the orexin 2 receptor (OX2R; HCRTR2), run by assay provider.; type: functional
[12] = biological target: DNA (cytosine-5)-methyltransferase 1 (Homo sapiens, UniProt P26358); test: DNMT1 methyltransferase inhibitors, confirmation, biochemical, fluorescent molecular beacon (AID 602386); type: functional
Melanocortin receptor 4 = Melanocortin receptor 4 (Homo sapiens, UniProt P32245); test: MC4R antagonist potency on cAMP, dose response, cell-based, TR-FRET, biased antagonists (AID 602298); type: functional;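 further: antagonist potency against agonist-stimulated cAMP production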
[13] = nonselective inhibitors of cellular cAMP signaling, dose response, counter-screen for MC4R biased antagonist project, cell-based, TR-FRET cAMP detection (AID 602305); type: functional;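 further: U2OS cells stimulated with forskolin near its EC80 as the cAMP inducer; potency is for inhibition of forskolin-stimulated cAMP signaling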
[14] = biological target: Tyrosine-protein kinase JAK3 (Homo sapiens, UniProt P52333); type: functional
[15] = biological target: ALK tyrosine kinase receptor (Homo sapiens, UniProt Q9UM73); type: functional;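 further: ALK tested as one member of a kinase panel screen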
Aurora kinase A = Aurora kinase A (Homo sapiens, UniProt O14965); type: functional;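 further: value from the Navigating the Kinome kinase panel profiling, panel entry STK6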
[16] = biological target: Mitochondrial peptide methionine sulfoxide reductase (Bos taurus, UniProt P54149); type: functional;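 further: absorbance read-out, biochemical high-throughput dose-response screen for MsrA inhibitors, confirmatory; recombinant bovine MsrA coupled to E. coli TrxB with NADPH and selenocystamine; potency is for inhibitors of MsrA activity on DMSO substrate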
[17] = biological target: Dual specificity protein kinase CLK2 (Homo sapiens, UniProt P49760); type: functional
[18] = biological target: G protein-coupled receptor kinase 5 (Homo sapiens, UniProt P34947); test: Navigating the Kinome. Panel member name: GPRK5; type: functional
Chain of G protein-coupled receptor kinase 5 (P34947 whole entry): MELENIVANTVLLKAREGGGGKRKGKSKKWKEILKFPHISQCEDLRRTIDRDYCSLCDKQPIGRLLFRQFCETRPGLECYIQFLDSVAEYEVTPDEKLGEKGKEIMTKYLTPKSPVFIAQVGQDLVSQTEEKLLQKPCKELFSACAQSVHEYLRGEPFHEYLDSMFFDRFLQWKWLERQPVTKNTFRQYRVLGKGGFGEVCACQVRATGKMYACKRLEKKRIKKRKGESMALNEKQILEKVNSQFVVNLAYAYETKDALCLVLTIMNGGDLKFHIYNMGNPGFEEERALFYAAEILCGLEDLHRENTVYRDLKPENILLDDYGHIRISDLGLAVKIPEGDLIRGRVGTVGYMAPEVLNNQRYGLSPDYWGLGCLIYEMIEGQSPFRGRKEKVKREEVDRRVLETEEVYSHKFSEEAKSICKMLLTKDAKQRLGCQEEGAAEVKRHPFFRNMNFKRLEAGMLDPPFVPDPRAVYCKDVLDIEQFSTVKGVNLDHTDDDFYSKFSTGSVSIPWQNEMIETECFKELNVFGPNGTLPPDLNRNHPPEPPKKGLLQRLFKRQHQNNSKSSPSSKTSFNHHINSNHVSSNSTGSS

T2 sequence (P63165 whole entry, the tested form may be a part): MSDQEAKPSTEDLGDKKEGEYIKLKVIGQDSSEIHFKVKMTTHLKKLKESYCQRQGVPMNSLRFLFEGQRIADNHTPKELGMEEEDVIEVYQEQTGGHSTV
Chain of Large T antigen (P03070 whole entry): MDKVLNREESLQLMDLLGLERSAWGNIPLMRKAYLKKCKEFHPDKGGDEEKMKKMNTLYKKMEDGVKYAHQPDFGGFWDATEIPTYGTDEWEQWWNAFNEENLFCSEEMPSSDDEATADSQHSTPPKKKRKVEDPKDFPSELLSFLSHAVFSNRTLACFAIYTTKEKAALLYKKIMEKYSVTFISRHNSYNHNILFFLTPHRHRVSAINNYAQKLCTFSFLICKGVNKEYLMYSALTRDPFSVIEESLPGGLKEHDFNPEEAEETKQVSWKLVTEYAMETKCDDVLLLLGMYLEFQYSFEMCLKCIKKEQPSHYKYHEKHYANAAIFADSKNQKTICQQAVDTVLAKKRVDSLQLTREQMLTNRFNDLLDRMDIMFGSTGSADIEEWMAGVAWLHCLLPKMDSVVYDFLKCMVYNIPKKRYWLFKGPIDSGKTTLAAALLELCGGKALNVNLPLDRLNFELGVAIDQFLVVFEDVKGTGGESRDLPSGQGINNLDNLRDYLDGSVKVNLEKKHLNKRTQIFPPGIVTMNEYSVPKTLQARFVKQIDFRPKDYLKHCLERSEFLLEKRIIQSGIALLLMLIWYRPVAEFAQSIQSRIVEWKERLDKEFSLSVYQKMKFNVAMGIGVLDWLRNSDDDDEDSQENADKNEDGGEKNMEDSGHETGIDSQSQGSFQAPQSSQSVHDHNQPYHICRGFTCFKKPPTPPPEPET
Chain of Dual specificity protein kinase CLK2 (P49760 whole entry): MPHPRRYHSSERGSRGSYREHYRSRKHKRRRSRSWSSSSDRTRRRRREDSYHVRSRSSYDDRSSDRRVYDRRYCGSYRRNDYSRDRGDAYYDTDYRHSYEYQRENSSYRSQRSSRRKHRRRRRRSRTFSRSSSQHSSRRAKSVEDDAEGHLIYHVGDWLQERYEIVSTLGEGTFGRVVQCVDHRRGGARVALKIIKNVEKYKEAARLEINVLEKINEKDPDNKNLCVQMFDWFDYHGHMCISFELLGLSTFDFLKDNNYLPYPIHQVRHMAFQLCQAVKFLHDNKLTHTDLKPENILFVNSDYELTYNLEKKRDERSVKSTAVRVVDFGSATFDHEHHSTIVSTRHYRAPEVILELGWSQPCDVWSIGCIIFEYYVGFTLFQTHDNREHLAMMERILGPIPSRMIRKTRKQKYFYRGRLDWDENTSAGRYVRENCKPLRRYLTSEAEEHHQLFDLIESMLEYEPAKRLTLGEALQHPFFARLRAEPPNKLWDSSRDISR
Chain of DNA (cytosine-5)-methyltransferase 1 (P26358 whole entry): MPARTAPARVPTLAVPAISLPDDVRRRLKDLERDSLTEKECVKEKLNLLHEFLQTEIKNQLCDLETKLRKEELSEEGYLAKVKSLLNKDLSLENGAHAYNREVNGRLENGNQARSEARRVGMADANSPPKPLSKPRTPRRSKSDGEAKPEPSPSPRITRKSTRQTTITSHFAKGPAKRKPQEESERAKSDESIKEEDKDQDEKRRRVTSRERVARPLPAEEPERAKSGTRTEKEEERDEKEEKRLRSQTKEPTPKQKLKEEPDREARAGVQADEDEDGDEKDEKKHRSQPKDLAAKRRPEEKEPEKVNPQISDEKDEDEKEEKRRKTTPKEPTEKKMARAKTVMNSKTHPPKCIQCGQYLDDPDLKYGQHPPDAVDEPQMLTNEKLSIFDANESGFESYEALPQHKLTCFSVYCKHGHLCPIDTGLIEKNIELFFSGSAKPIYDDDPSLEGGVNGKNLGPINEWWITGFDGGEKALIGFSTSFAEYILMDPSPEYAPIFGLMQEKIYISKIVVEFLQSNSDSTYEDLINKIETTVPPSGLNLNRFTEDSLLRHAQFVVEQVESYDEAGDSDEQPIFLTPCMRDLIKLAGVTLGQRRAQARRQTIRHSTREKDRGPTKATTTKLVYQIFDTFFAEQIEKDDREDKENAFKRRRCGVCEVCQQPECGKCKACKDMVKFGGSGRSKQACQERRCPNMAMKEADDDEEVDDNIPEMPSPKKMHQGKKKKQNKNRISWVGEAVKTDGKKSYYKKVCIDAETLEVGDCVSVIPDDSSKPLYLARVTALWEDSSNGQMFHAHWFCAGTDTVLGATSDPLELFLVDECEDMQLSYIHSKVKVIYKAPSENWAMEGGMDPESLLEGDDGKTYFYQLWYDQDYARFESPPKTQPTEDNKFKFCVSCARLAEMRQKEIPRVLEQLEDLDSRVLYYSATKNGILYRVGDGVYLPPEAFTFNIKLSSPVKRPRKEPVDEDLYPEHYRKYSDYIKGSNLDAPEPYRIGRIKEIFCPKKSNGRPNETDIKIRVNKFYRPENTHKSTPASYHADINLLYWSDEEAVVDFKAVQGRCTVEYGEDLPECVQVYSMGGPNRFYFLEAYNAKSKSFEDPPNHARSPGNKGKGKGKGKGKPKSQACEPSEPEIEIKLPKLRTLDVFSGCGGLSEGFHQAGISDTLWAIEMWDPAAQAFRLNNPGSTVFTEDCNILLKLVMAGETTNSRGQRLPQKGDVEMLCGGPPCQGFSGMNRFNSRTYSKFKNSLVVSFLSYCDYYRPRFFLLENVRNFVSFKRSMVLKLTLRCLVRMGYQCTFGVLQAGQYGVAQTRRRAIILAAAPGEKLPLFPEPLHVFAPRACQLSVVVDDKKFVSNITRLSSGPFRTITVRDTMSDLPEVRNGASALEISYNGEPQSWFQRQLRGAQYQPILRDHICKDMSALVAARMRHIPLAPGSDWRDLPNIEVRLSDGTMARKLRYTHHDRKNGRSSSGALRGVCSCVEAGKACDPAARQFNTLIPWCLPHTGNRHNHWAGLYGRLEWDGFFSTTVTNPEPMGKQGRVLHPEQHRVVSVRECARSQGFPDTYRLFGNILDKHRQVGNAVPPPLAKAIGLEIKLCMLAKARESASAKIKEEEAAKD
Chain of 26S proteasome non-ATPase regulatory subunit 14 (O00487 whole entry): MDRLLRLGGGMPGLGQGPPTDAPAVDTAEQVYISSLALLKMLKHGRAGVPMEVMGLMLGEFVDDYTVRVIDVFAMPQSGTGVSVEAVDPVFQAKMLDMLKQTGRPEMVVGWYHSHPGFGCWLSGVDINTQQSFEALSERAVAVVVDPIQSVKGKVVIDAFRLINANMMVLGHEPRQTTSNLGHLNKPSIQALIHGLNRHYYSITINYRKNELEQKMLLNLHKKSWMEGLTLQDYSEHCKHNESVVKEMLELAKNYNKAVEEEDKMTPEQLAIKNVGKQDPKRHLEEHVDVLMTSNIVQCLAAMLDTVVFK
Chain of Tyrosine-protein kinase JAK3 (P52333 whole entry): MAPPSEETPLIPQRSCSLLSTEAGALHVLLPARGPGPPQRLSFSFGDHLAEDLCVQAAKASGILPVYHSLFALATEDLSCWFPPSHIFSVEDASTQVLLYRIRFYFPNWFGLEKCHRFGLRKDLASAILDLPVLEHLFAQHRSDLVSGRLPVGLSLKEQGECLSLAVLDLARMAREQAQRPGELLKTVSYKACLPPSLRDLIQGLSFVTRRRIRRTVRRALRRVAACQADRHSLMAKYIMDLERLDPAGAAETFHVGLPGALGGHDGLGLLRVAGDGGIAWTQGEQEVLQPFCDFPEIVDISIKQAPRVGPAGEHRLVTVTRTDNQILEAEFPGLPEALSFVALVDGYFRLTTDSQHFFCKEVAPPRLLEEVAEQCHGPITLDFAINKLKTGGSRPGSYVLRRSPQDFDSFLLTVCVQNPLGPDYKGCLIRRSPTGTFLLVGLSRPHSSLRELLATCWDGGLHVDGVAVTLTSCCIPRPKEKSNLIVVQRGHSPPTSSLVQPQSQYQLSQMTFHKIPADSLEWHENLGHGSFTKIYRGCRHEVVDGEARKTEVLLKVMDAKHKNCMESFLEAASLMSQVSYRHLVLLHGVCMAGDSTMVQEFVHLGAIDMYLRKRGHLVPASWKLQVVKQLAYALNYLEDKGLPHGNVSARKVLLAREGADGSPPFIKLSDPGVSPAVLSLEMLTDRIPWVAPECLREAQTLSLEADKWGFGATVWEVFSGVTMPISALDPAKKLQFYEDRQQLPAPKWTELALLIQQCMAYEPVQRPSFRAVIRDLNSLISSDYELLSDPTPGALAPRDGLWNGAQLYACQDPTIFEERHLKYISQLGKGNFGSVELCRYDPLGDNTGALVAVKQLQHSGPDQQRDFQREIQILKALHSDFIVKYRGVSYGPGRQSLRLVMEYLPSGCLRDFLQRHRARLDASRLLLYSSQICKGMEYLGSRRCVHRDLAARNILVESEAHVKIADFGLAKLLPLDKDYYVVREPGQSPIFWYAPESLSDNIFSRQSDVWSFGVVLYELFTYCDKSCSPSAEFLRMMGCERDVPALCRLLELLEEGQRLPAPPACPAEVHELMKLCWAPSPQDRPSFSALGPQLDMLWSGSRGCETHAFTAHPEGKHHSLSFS

SMILES: O=c1[nH]c(=S)[nH]c2c1C(c1ccc(Br)cc1)c1c([nH]c(=S)[nH]c1=O)O2
IC50 [1]: 14.5 µM (active)
IC50 (Genome polyprotein): 73.7 µM (active)
IC50 (Cysteine protease ATG4B): 2.96 µM (active)
IC50 [2]: > 66.6 µM (inactive)
EC50 [3]: 4.86 µM (inconclusive)
AC50 (ORF 73): 281 µM (active)
IC50 [4]: 0.0169 µM (active)
IC50 (Large T antigen): 21.4 µM (active)
IC50 (Prothrombin): 20.8 µM (active)
EC50 [5]: 4.53 µM (active)
IC50 (Phospholipase A2): 29.2 µM (inactive)
IC50 [6]: 10.3 µM (active)

SMILES: CCSC1=C(C#N)C(c2ccccc2Cl)C(C(=O)c2cccs2)C(O)(C(F)(F)F)N1 (stereo not drawn)
IC50 (CHO-K1): > 66.2 µM (inactive)
IC50 [7]: 0.878 µM (active)
IC50 [8]: 0.174 µM (active)
IC50 (Orexin receptor type 2 [9]): > 50 µM (inactive)
IC50 [10]: 33.9 µM (inactive)
IC50 (Orexin receptor type 2 [11]): 20 µM (inactive)

SMILES: CCOC(=O)C1=C(COC(=O)/C=C/c2cccc(OC)c2)NC(=O)NC1C (stereo not drawn)
IC50 (CHO-K1): > 66.2 µM (inactive)
IC50 [7]: 15.3 µM (inactive)
IC50 [8]: 8.33 µM (active)
IC50 (Orexin receptor type 2 [9]): > 50 µM (inactive)
IC50 [10]: > 49.8 µM (inactive)
IC50 (Orexin receptor type 2 [11]): > 88.8 µM (inactive)

SMILES: COC(=O)c1sc(N)c(C(=O)OC)c1COC(=O)CNS(=O)(=O)c1ccc(C)c(C)c1
IC50 (Melanocortin receptor 4): > 64.6 µM (inactive)
IC50 [13]: > 64.6 µM (inactive)

SMILES: COc1cc2c(Nc3ccc(Br)cc3F)ncnc2cc1OCC1CCN(C)CC1 [VANDETANIB]
Ki [17]: > 2 µM (inactive)
Ki [18]: > 3.98 µM (inactive)

Now from value to molecule:

IC50 [12]: > 99 µM (inactive)
SMILES: CCOC(=O)C(NC(=O)CC(C)C)(Nc1sc2c(c1C(N)=O)CCCC2)C(F)(F)F (stereo not drawn)

Ki [14]: 5.01 µM (active)
SMILES: CC(C)CC(NC(=O)c1cccc(-n2nc(C(C)(C)C)cc2NC(=O)Nc2cccc3ccccc23)c1)C(N)=O (stereo not drawn)

Ki [15]: 0.398 µM (active)
Ki (Aurora kinase A): 0.0501 µM (active)
SMILES: Cc1cccc(NC(=O)Nc2ccc(-c3csc4c(-c5ccc(NC(=O)CCCN(C)C)cc5)cnc(N)c34)cc2)c1

IC50 [16]: 155 µM (inactive)
SMILES: C/C(=N\Nc1ccc(C(F)(F)F)cc1[N+](=O)[O-])C1CC1
